Source: paper PMC9663597, “Anti-infective therapy using species-specific activators of Staphylococcus aureus ClpP” (Nature Communications, 2022)
In brackets after ≈: the same amount, converted by molar mass. Read-outs that look alike come from different tables or passages of the source.

T1: Staphylococcus aureus ClpP (Staphylococcus aureus), Q2G036
T1 chain: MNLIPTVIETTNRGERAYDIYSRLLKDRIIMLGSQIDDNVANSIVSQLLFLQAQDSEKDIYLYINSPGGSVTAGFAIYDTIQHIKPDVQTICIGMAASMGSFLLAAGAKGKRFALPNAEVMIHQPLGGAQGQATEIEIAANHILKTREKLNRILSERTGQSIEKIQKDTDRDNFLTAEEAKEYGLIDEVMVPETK

B1: Staphylococcus aureus ClpP, Q2G036 1-195 (enzyme)
chain: T1 chain

Assays:
[1] = biological target: T2, SaClpP (Staphylococcus aureus ClpP) (Staphylococcus aureus, UniProt Q2G036); assay: ITC; also BLI (Kd […]), DSF, CETSA, X-ray crystal structure, alpha-casein hydrolysis EC50 […]; type: binding
SaClpPI91W = biological target: T3, SaClpPI91W (Staphylococcus aureus, UniProt Q2G036, I91W); assay: ITC; also DSF, CETSA, alpha-casein hydrolysis; type: binding
T3 construct: gene clpP

[2] = system: T4, Staphylococcus aureus NRS100; assay: microbe, parasite or virus in culture; set-up: species or system Staphylococcus aureus strains; Minimum inhibitory concentration, growth inhibition of S. aureus strains in culture; details: NRS100, read-out: MIC
T4 construct: NRS100
Text: (§1) Given our species-specific activators suppress the growth of S. aureus 8325-4, we then tested the antistaphylococcal spectrum of (R)- and (S)-ZG197 against a panel of S. aureus strains, including the Newman strain and multidrug-resistant MRSA strains. The USA300, NRS-1, NRS-70, NRS-100, NRS-108, and NRS-271 MRSA strains were collected from the Network on Antimicrobial Resistance in S. aureus (Supplementary Table 2). […] We also tested the antibacterial effects of our activators on five hospital-acquired, multidrug-resistant MRSA isolates in China, including XJ009, XJ036, XJ049, XJ051, and XJ052 (Supplementary Table 2). […] We next performed a minimum inhibitory concentration (MIC) assay in [compound left out] culture to determine the antibacterial effects of our activators on the S. aureus 8325-4 strain. […] To dissect whether our activators’ antistaphylococcal activity depends on ClpP in S. aureus, we determined the inhibitory effects of our activators on the ΔclpP mutant and the complemented clpP or clpPI91W mutant strains, respectively (Fig. 5a). The selective (R)- and (S)-ZG197 activators or the global activators ICG-001 and ONC212 minimally suppress the growth of ΔclpP mutant strain, and all the MICs are observed to be over 256 μg/mL. The antibacterial phenotype can be rescued in the complemented clpP strain in the presence of ClpP activators.

[3] = system: T5, Staphylococcus aureus NRS108; assay: microbe, parasite or virus in culture; set-up: species or system Staphylococcus aureus strains; Minimum inhibitory concentration, growth inhibition of S. aureus strains in culture; details: NRS108, read-out: MIC
T5 construct: NRS108
Text: as §1

[4] = system: T6, Staphylococcus aureus NRS1; assay: microbe, parasite or virus in culture; set-up: species or system Staphylococcus aureus strains; Minimum inhibitory concentration, growth inhibition of S. aureus strains in culture; details: NRS1, read-out: MIC
T6 construct: NRS1
Text: as §1

[5] = system: T7, Staphylococcus aureus NRS271; assay: microbe, parasite or virus in culture; set-up: species or system Staphylococcus aureus strains; Minimum inhibitory concentration, growth inhibition of S. aureus strains in culture; details: NRS271, read-out: MIC
T7 construct: NRS271
Text: as §1

[6] = system: T8, Staphylococcus aureus NRS70; assay: microbe, parasite or virus in culture; set-up: species or system Staphylococcus aureus strains; Minimum inhibitory concentration, growth inhibition of S. aureus strains in culture; details: NRS70, read-out: MIC
T8 construct: NRS70
Text: as §1

[7] = system: T9, Staphylococcus aureus Newman; assay: microbe, parasite or virus in culture; set-up: species or system Staphylococcus aureus strains; Minimum inhibitory concentration, growth inhibition of S. aureus strains in culture; details: NEWMAN, read-out: MIC
T9 construct: Newman
Text: as §1

[8] = system: T10, Staphylococcus aureus USA300 LAC; assay: microbe, parasite or virus in culture; set-up: species or system Staphylococcus aureus strains; Minimum inhibitory concentration, growth inhibition of S. aureus strains in culture; details: USA300, read-out: MIC
T10 construct: USA300 LAC
Text: as §1

[9] = system: T11, Staphylococcus aureus XJ009; assay: microbe, parasite or virus in culture; set-up: species or system Staphylococcus aureus strains; Minimum inhibitory concentration, growth inhibition of S. aureus strains in culture; details: XJ009, read-out: MIC
T11 construct: XJ009
Text: as §1

[10] = system: T12, Staphylococcus aureus XJ036; assay: microbe, parasite or virus in culture; set-up: species or system Staphylococcus aureus strains; Minimum inhibitory concentration, growth inhibition of S. aureus strains in culture; details: XJ036, read-out: MIC
T12 construct: XJ036
Text: as §1

[11] = system: T13, Staphylococcus aureus XJ049; assay: microbe, parasite or virus in culture; set-up: species or system Staphylococcus aureus strains; Minimum inhibitory concentration, growth inhibition of S. aureus strains in culture; details: XJ049, read-out: MIC
T13 construct: XJ049
Text: as §1

[12] = system: T14, Staphylococcus aureus XJ051; assay: microbe, parasite or virus in culture; set-up: species or system Staphylococcus aureus strains; Minimum inhibitory concentration, growth inhibition of S. aureus strains in culture; details: XJ051, read-out: MIC
T14 construct: XJ051
Text: as §1

[13] = system: T15, Staphylococcus aureus XJ052; assay: microbe, parasite or virus in culture; set-up: species or system Staphylococcus aureus strains; Minimum inhibitory concentration, growth inhibition of S. aureus strains in culture; details: XJ052, read-out: MIC
T15 construct: XJ052
Text: as §1

[14] = system: T12, Staphylococcus aureus XJ036; assay: microbe, parasite or virus in culture; set-up: species or system Staphylococcus aureus strains; Minimum inhibitory concentration, growth inhibition of S. aureus strains in culture; details: XJ036
Text: as §1, with “liquid” for “[compound left out]”

[15] = system: T13, Staphylococcus aureus XJ049; assay: microbe, parasite or virus in culture; set-up: species or system Staphylococcus aureus strains; Minimum inhibitory concentration, growth inhibition of S. aureus strains in culture; details: XJ049
Text: as §1, with “liquid” for “[compound left out]”

[16] = system: T14, Staphylococcus aureus XJ051; assay: microbe, parasite or virus in culture; set-up: species or system Staphylococcus aureus strains; Minimum inhibitory concentration, growth inhibition of S. aureus strains in culture; details: XJ051
Text: as §1, with “liquid” for “[compound left out]”

[17] = system: T15, Staphylococcus aureus XJ052; assay: microbe, parasite or virus in culture; set-up: species or system Staphylococcus aureus strains; Minimum inhibitory concentration, growth inhibition of S. aureus strains in culture; details: XJ052
Text: as §1, with “liquid” for “[compound left out]”

[18] = biological target: T2, SaClpP (Staphylococcus aureus ClpP); assay: ITC; also BLI (Kd […]), DSF, CETSA, X-ray crystal structure; type: binding
[19] = biological target: T1, Staphylococcus aureus ClpP …; assay: crystal structure; SaClpP (10 mg/mL) with 5-fold ZG180, sitting drop vapor diffusion at 16 °C, 30% 2-methyl-2,4-pentanediol, 0.1 M sodium acetate/HCl pH 8.0, 20 mM calcium chloride; 1.90 Å; details: remark: other sources report otherwise

Molecule | MIC [2] [µg/mL] | MIC [3] [µg/mL] | MIC [4] [µg/mL] | MIC [5] [µg/mL] | MIC [6] [µg/mL] | MIC [7] [µg/mL] | MIC [8] [µg/mL] | MIC [9] [µg/mL] | MIC [10] [µg/mL] | MIC [11] [µg/mL] | MIC [12] [µg/mL] | MIC [13] [µg/mL] | also measured
CC[C@H](C)[C@H]1C(=O)N([C@H](C)c2cccc3ccccc23)C[C@@H]2N(C(=O)NCCCC(F)(F)F)CCC(=O)N12 [(R)-ZG197] | 0.5 (≈ 0.939 µM) | 0.5 (≈ 0.939 µM) | 2 (≈ 3.76 µM) | 2 (≈ 3.76 µM) | 0.5 (≈ 0.939 µM) | 0.5 (≈ 0.939 µM) | 0.5 (≈ 0.939 µM) | 1 (≈ 1.88 µM) | 1 (≈ 1.88 µM) | 0.5 (≈ 0.939 µM) | 0.5 (≈ 0.939 µM) | 1 (≈ 1.88 µM) | Kd [1]: 2500 ± 200 nM; Kd (SaClpPI91W): 930 ± 200 nM
CNC(C)[C@@H]1CC[C@@H](N)[C@@H](O[C@H]2[C@H](O)[C@@H](O[C@H]3OC[C@](C)(O)[C@H](NC)[C@H]3O)[C@H](N)C[C@@H]2N)O1 (stereo partly drawn) [Gentamicin] |  |  |  |  |  |  |  |  |  |  |  |  | MIC [14]: 0.25 µg/mL (≈ 0.523 µM); MIC [15]: 32 µg/mL (≈ 67 µM); MIC [16]: 64 µg/mL (≈ 134 µM); MIC [17]: 64 µg/mL (≈ 134 µM)
CCC[C@@H]1C[C@@H](C(=O)N[C@@H]([C@H]2O[C@H](SC)[C@H](O)[C@@H](O)[C@H]2O)[C@H](C)Cl)N(C)C1 [Clindamycin] |  |  |  |  |  |  |  |  | 0.13 (≈ 0.306 µM) |  | 0.06 (≈ 0.141 µM) |  | 
CCn1cc(C(=O)O)c(=O)c2cc(F)c(N3CCNCC3)cc21 [Norfloxacin] |  |  |  |  |  |  |  | 0.5 (≈ 1.57 µM) | 64 (≈ 200 µM) |  | 64 (≈ 200 µM) |  | 
O=C1C2=C(CCN(Cc3ccccc3)C2)N2CCN=C2N1Cc1ccc(C(F)(F)F)cc1 [ONC212] | 0.5 (≈ 1.14 µM) | 0.5 (≈ 1.14 µM) | 1 (≈ 2.27 µM) | 0.5 (≈ 1.14 µM) | 0.25 (≈ 0.568 µM) | 0.25 (≈ 0.568 µM) | 0.5 (≈ 1.14 µM) | 0.5 (≈ 1.14 µM) | 0.25 (≈ 0.568 µM) | 0.25 (≈ 0.568 µM) | 1 (≈ 2.27 µM) | 0.25 (≈ 0.568 µM) | 
CC[C@@H](C)[C@H]1C(=O)N([C@@H](C)c2cccc3ccccc23)C[C@@H]2N(C(=O)NCCCC(F)(F)F)CCC(=O)N12 [(S)-ZG197] | 2 (≈ 3.76 µM) | 4 (≈ 7.51 µM) | 8 (≈ 15 µM) | 4 (≈ 7.51 µM) | 4 (≈ 7.51 µM) | 2 (≈ 3.76 µM) | 8 (≈ 15 µM) | 8 (≈ 15 µM) | 4 (≈ 7.51 µM) | 8 (≈ 15 µM) | 4 (≈ 7.51 µM) | 4 (≈ 7.51 µM) | Kd [18]: 5000 ± 300 nM
CN(C)[C@@H]1C(O)=C(C(N)=O)C(=O)[C@@]2(O)C(O)=C3C(=O)c4c(O)cccc4[C@@](C)(O)[C@H]3C[C@@H]12 [Tetracycline] |  |  |  | 2.5 (≈ 5.63 µM) | 0.06 (≈ 0.135 µM) |  | 16 (≈ 36 µM) |  |  |  |  |  | 
CC[C@H]1OC(=O)[C@H](C)[C@@H](O[C@H]2C[C@@](C)(OC)[C@@H](O)[C@H](C)O2)[C@H](C)[C@@H](O[C@@H]2O[C@H](C)C[C@H](N(C)C)[C@H]2O)[C@](C)(O)C[C@@H](C)C(=O)[C@H](C)[C@@H](O)[C@]1(C)O [Erythromycin] | 0.06 (≈ 0.0818 µM) |  |  | 0.5 (≈ 0.681 µM) |  |  | 16 (≈ 21.8 µM) |  | 0.25 (≈ 0.341 µM) |  | 32 (≈ 43.6 µM) |  | 
Cc1onc(-c2ccccc2)c1C(=O)N[C@@H]1C(=O)N2[C@@H]1SC(C)(C)[C@@H]2C(=O)O [Oxacillin] | 0.1 (≈ 0.249 µM) | 0.5 (≈ 1.25 µM) |  |  | 2 (≈ 4.98 µM) | 0.1 (≈ 0.249 µM) |  | 4 (≈ 9.96 µM) | 1 (≈ 2.49 µM) |  |  |  | 
B1 |  |  |  |  |  |  |  |  |  |  |  |  | stoichiometry N [19]: 14
